Values quoted from earlier work as cited in PubChem BioAssay AID1259409 (Chemical Carcinogenesis Research Information System (CCRIS), 2018).
“And” between values parts separate entries of the source, which are not always exact repeats. Equal values may be shown once.

System: rodent chemically induced tumor inhibition, incidence and multiplicity
Assay: CCRIS tumor inhibitor studies

For `O=c1cc(-c2ccccc2)oc2ccc3ccccc3c12`, the “tumour outcome (control, treated, inhibition, significance)” value (Carcinogen: 2-AMINO-1-METHYL-6-PHENYLIMIDAZO[4,5-B]PYRIDINE [105650-23-5], Dose [Inhibitor]: 1000 PPM IN DIET FOR 4 WK BEGINNING WK PRIOR TO FIRST CARCINOGEN DOSE (STUDY DURATION: 25 WK), Route [Inhibitor]: ORAL, Species: RAT, Strain/Sex: SPRAGUE-DAWLEY/FEMALE, Target Tissue: Type of Lesion: MAMMARY GLAND: FIBROADENOMA OR DUCTAL CARCINOMA, Dose [Carcinogen]: 85 MG/KG BW 2X/WK FOR 4 WK (STUDY DURATION: 25 WK), Promoter: NONE) is listed as 67.7%, 12.5%, 82%, p<0.001, the “tumour outcome (control, treated, inhibition, significance)” value (Carcinogen: 7,12-DIMETHYLBENZ[A]ANTHRACENE [57-97-6], Dose [Inhibitor]: 500 PPM IN DIET FOR 10 WK BEGINNING 1 WK PRIOR TO FIRST CARCINOGEN DOSE (STUDY DURATION: 11 MONTHS), Route [Inhibitor]: ORAL, Species: FISH, Strain/Sex: RAINBOW TROUT/MALE, FEMALE, Target Tissue: Type of Lesion: LIVER: TUMOR, Dose [Carcinogen]: 800 PPM IN DIET FOR 9 WK (STUDY DURATION: 11 MONTHS), Promoter: NONE) is listed as 4%, 7%, -75%, not significant and the “tumour outcome (control, treated, inhibition, significance)” value (Carcinogen: 7,12-DIMETHYLBENZ[A]ANTHRACENE [57-97-6], Dose [Inhibitor]: 500 PPM IN DIET FOR 10 WK BEGINNING 1 WK PRIOR TO FIRST CARCINOGEN DOSE (STUDY DURATION: 11 MONTHS), Route [Inhibitor]: ORAL, Species: FISH, Strain/Sex: RAINBOW TROUT/MALE, FEMALE, Target Tissue: Type of Lesion: STOMACH: TUMOR, Dose [Carcinogen]: 800 PPM IN DIET FOR 9 WK (STUDY DURATION: 11 MONTHS), Promoter: NONE) is listed as 92%, 28%, 70%, p<0.001. The “tumour outcome (control, treated, inhibition, significance)” value (Carcinogen: 7,12-DIMETHYLBENZ[A]ANTHRACENE [57-97-6], Dose [Inhibitor]: 500 PPM IN DIET FOR 10 WK BEGINNING 1 WK PRIOR TO FIRST CARCINOGEN DOSE (STUDY DURATION: 11 MONTHS), Route [Inhibitor]: ORAL, Species: FISH, Strain/Sex: RAINBOW TROUT/MALE, FEMALE, Target Tissue: Type of Lesion: SWIM BLADDER: TUMOR, Dose [Carcinogen]: 800 PPM IN DIET FOR 9 WK (STUDY DURATION: 11 MONTHS), Promoter: NONE) was 46%, 27%, 41%, p<0.001, the “tumour outcome (control, treated, inhibition, significance)” value (Carcinogen: 7,12-DIMETHYLBENZ[A]ANTHRACENE, 57-97-6, Dose [Inhibitor]: 100 UG APPLIED ONCE 5 MIN BEFORE DMBA (STUDY DURATION: 28 WK), Route [Inhibitor]: DERMAL, Species: MOUSE, Strain/Sex: CD-1/FEMALE, Target Tissue: Type of Lesion: SKIN: PAPILLOMA, Dose [Carcinogen]: 2.56 UG APPLIED ONCE 5 MIN AFTER INHIBITOR, Promoter: 12-O-TETRADECANOYLPHORBOL-13-ACETATE, 16561-29-8) was 82%, 65%, 21%, not calculated and the “tumour outcome (control, treated, inhibition, significance)” value (Carcinogen: 7,12-DIMETHYLBENZ[A]ANTHRACENE, 57-97-6, Dose [Inhibitor]: 1000 UG APPLIED ONCE 5 MIN BEFORE DMBA (STUDY DURATION: 28 WK), Route [Inhibitor]: DERMAL, Species: MOUSE, Strain/Sex: CD-1/FEMALE, Target Tissue: Type of Lesion: SKIN: PAPILLOMA, Dose [Carcinogen]: 2.56 UG APPLIED ONCE 5 MIN AFTER INHIBITOR, Promoter: 12-O-TETRADECANOYLPHORBOL-13-ACETATE, 16561-29-8) was 82%, 60%, 27%, not calculated. The “tumour outcome (control, treated, inhibition, significance)” value (Carcinogen: DIETHYLNITROSAMINE, 55-18-5, Dose [Inhibitor]: 500 PPM IN DIET FOR 6 WK PRIOR TO CARCINOGEN DOSE (STUDY DURATION: 48 WK), Route [Inhibitor]: ORAL, Species: FISH, Strain/Sex: MT. SHASTA RAINBOW/MALE, FEMALE, Target Tissue: Type of Lesion: LIVER: HEPATOCELLULAR CARCINOMA AND HEPATOCHOLANGIOCELLULAR CARCINOMA, Dose [Carcinogen]: 250 PPM AQUEOUS SOLUTION FOR 24 HR, Promoter: NONE USED) was 105/131 (80%), 90/98 (92%), -15%, p=0.0102, the “tumour outcome (control, treated, inhibition, significance)” value (Carcinogen: N-NITROSOETHYLUREA, 759-73-9, Dose [Inhibitor]: 0, 150 MG/KG IN OLIVE OIL 48 HR PRIOR TO CARCINOGEN DOSE (STUDY DURATION: 8 WK), Route [Inhibitor]: INTRAPERITONEAL, Species: MOUSE, Strain/Sex: AKR/FEMALE, Target Tissue: Type of Lesion: LUNG: TUMOR, Dose [Carcinogen]: 8 MG/KG IN 0.22 MOLAR SODIUM CITRATE BUFFER 1/WK FOR 4 WK, Promoter: NONE USED) was 8/32 (25%), 8/35 (23%), 8%, not calculated and the “tumour outcome (control, treated, inhibition, significance)” value (Carcinogen: N-NITROSOETHYLUREA, 759-73-9, Dose [Inhibitor]: 0, 150 MG/KG IN OLIVE OIL 48 HR PRIOR TO CARCINOGEN DOSE (STUDY DURATION: 8 WK), Route [Inhibitor]: INTRAPERITONEAL, Species: MOUSE, Strain/Sex: C3H/HE/FEMALE, Target Tissue: Type of Lesion: LUNG: TUMOR, Dose [Carcinogen]: 8 MG/KG IN 0.22 MOLAR SODIUM CITRATE BUFFER 1/WK FOR 4 WK, Promoter: NONE USED) was 26/33 (79%), 25/29 (86%), -9%, not calculated. For the same compound, the “tumour outcome (control, treated, inhibition, significance)” value (Carcinogen: N-NITROSOETHYLUREA, 759-73-9, Dose [Inhibitor]: 0, 150 MG/KG IN OLIVE OIL 48 HR PRIOR TO CARCINOGEN DOSE (STUDY DURATION: 8 WK), Route [Inhibitor]: INTRAPERITONEAL, Species: MOUSE, Strain/Sex: C57BL/FEMALE, Target Tissue: Type of Lesion: LUNG: TUMOR, Dose [Carcinogen]: 8 MG/KG IN 0.22 MOLAR SODIUM CITRATE BUFFER 1/WK FOR 4 WK, Promoter: NONE USED) was 9/35 (26%), 17/29 (57%), -119%, not calculated, the “tumour outcome (control, treated, inhibition, significance)” value (Carcinogen: N-NITROSOETHYLUREA, 759-73-9, Dose [Inhibitor]: 0, 150 MG/KG IN OLIVE OIL 48 HR PRIOR TO CARCINOGEN DOSE (STUDY DURATION: 8 WK), Route [Inhibitor]: INTRAPERITONEAL, Species: MOUSE, Strain/Sex: DBA/FEMALE, Target Tissue: Type of Lesion: LUNG: TUMOR, Dose [Carcinogen]: 8 MG/KG IN 0.22 MOLAR SODIUM CITRATE BUFFER 1/WK FOR 4 WK, Promoter: NONE USED) was 12/34 (35%), 15/34 (44%), -26%, not calculated and the “tumour outcome (control, treated, inhibition, significance)” value (Carcinogen: N-NITROSOETHYLUREA, 759-73-9, Dose [Inhibitor]: 0, 150 MG/KG IN OLIVE OIL 48 HR PRIOR TO CARCINOGEN DOSE (STUDY DURATION: 8 WK), Route [Inhibitor]: INTRAPERITONEAL, Species: MOUSE, Strain/Sex: SWISS/FEMALE, Target Tissue: Type of Lesion: LUNG: TUMOR, Dose [Carcinogen]: 8 MG/KG IN 0.22 MOLAR SODIUM CITRATE BUFFER 1/WK FOR 4 WK, Promoter: NONE USED) was 26/27 (96%), 12/16 (75%), 22%, not calculated. For the same compound, the “tumour outcome (control, treated, inhibition, significance)” value (Dose [Inhibitor]: 0, 0.015% IN DIET FOR 9 WK BEGINNING 1 WK PRIOR TO AND CONTINUING DURING CARCINOGEN TREATMENT (STUDY DURATION: 42 WK), Route [Inhibitor]: ORAL, Species: RAT, Strain/Sex: F344/MALE, Target Tissue: Type of Lesion: LIVER: HEPATOMA, Dose [Carcinogen]: 25 UG 5 D/WK FOR 8 WK, Promoter: NONE USED) was 15/15 (100%), 4/16 (25%), 75%, not calculated and 15/15 (100%), 5/15 (31%), 69%, not calculated, the “tumour outcome (control, treated, inhibition, significance)” value (Dose [Inhibitor]: 0, 50 PPM IN DIET BEGINNING 8 WK PRIOR TO CARCINOGEN AND CONTINUING FOR 6 WK POST CARCINOGEN (STUDY DURATION: 68 WK), Route [Inhibitor]: ORAL, Species: FISH, Strain/Sex: RAINBOW TROUT, Target Tissue: Type of Lesion: LIVER: HEPATOCELLULAR CARCINOMA, Dose [Carcinogen]: 20 PPB IN DIET FOR 2 WK, Promoter: NONE USED) was 43/118 (36%), 20/117 (17%), 53%, p<0.05 and the “tumour outcome (control, treated, inhibition, significance)” value (Dose [Inhibitor]: 0, 500 PPM IN DIET BEGINNING 8 WK PRIOR TO CARCINOGEN AND CONTINUING FOR 6 WK POST CARCINOGEN (STUDY DURATION: 68 WK), Route [Inhibitor]: ORAL, Species: FISH, Strain/Sex: RAINBOW TROUT, Target Tissue: Type of Lesion: LIVER: HEPATOCELLULAR CARCINOMA, Dose [Carcinogen]: 20 PPB IN DIET FOR 2 WK, Promoter: NONE USED) was 43/118 (36%), 7/120 (6%), 84%, p<0.01. For the same compound, the outcome (Dose [Inhibitor]: 0.005% IN DIET BEGINNING 4 WK PRIOR TO CARCINOGEN DOSE AND CONTINUING FOR 4 ADDITIONAL WK CONCURRENTLY WITH CARCINOGEN D, Route [Inhibitor]: ORAL, Species: FISH, Strain/Sex: MT. SHASTA RAINBOW TROUT, Target Tissue: Type of Lesion: LIVER: CHOLANGIOCELLULAR CARCINOMA OR ADENOMA, Dose [Carcinogen]: 10 PPB IN DIET FOR 4 WK, Promoter: NONE USED) was 0/166, 1/177, 0%, the “tumour outcome (control, treated, inhibition, significance)” value (Dose [Inhibitor]: 0.005% IN DIET BEGINNING 4 WK PRIOR TO CARCINOGEN DOSE AND CONTINUING FOR 4 ADDITIONAL WK CONCURRENTLY WITH CARCINOGEN D, Route [Inhibitor]: ORAL, Species: FISH, Strain/Sex: MT. SHASTA RAINBOW TROUT, Target Tissue: Type of Lesion: LIVER: HEPATOCELLULAR CARCINOMA OR MIXED CARCINOMA OR HEPATOCELLULAR ADENOMA, Dose [Carcinogen]: 10 PPB IN DIET FOR 4 WK, Promoter: NONE USED) was 39/166 (23%), 7/177 (4%), 83%, p<0.01 and the “tumour outcome (control, treated, inhibition, significance)” value (Dose [Inhibitor]: 0.005% IN DIET FOR 8 WK (STUDY DURATION: 1 YR), Route [Inhibitor]: ORAL, Species: FISH, Strain/Sex: MT. SHASTA RAINBOW TROUT, Target Tissue: Type of Lesion: LIVER: CHOLANGIOCELLULAR CARCINOMA OR ADENOMA, Dose [Carcinogen]: 0.5 PPM AQUEOUS SOLUTION FOR 30 MIN EXPOSURE OF EMBRYOS 21 D AFTER FERTILIZATION, Promoter: NONE USED) was 8/182 (4%), 7/175 (4%), 0%, not calculated. For the same compound, the outcome (Dose [Inhibitor]: 0.05% IN DIET BEGINNING 4 WK PRIOR TO CARCINOGEN DOSE AND CONTINUING FOR 4 ADDITIONAL WK CONCURRENTLY WITH CARCINOGEN DO, Route [Inhibitor]: ORAL, Species: FISH, Strain/Sex: MT. SHASTA RAINBOW TROUT, Target Tissue: Type of Lesion: LIVER: CHOLANGIOCELLULAR CARCINOMA OR ADENOMA, Dose [Carcinogen]: 10 PPB IN DIET FOR 4 WK, Promoter: NONE USED) was 0/166 (0%), 0/172 (0%) and the “tumour outcome (control, treated, inhibition, significance)” value (Dose [Inhibitor]: 0.05% IN DIET BEGINNING 4 WK PRIOR TO CARCINOGEN DOSE AND CONTINUING FOR 4 ADDITIONAL WK CONCURRENTLY WITH CARCINOGEN DO, Route [Inhibitor]: ORAL, Species: FISH, Strain/Sex: MT. SHASTA RAINBOW TROUT, Target Tissue: Type of Lesion: LIVER: HEPATOCELLULAR CARCINOMA OR MIXED CARCINOMA OR HEPATOCELLULAR ADENOMA, Dose [Carcinogen]: 10 PPB IN DIET FOR 4 WK, Promoter: NONE USED) was 39/166 (23%), 1/172 (0.6%), 97%, p<0.01.
